Measurements as given in US7595055B2, “Pharmaceutical composition comprising an extract or compounds isolated from Elfvingia applanata for the prevention and the treatment of diabetes and diabetic complications” (priority 2003, dated 2009).
Where two headings read alike, the source gives them in different places.

Biological target: T1, rat lenses aldose reductase (Rattus norvegicus, UniProt P07943)
T1 construct: The supernatant fraction of the rat lens homogenate was prepared in accordance with the procedure described in literature; from tissue; host or cells: lens of SD rats
Assay: Inhibitory effect on rat lens aldose reductase activity in vitro
Format: biochemical
Conditions: for IC50: rat lens aldose reductase, DL-glyceraldehyde substrate, NADPH decrease at 340 nm
Protocol: Crude aldose reductase (AR) was prepared as follows: rat lense were removed from SD rats weighing 250-280 g and frozen until use. The supernatant fraction of the rat lens homogenate was prepared in accordance with the procedure described in literature (Hayman, S. & Kinoshita, J. H.; J. Biol. Chem., 240, pp 877-882, 1965). Partially purified enzyme with a specific activity of 6.5 U/mg was routinely used to rest enzyme inhibition.
(2) Measurement of Aldose Reductase Activity AR activity was assayed spectrophotometrically by measuring the decrease in absorption of NADPH at 340 nm over a 5 min with DL-glyceraldehyde as a substrate (Sato, S and Kador, P. F., Biochem. Pharmacol., 40, pp 1033-1042, 1990). Each 1.0 ml of cuvette containing equal units of enzyme, 0.10M sodium phospate buffer (pH 6.2), 0.3 mM NADPH with or without 10 mM substrate and the enzyme inhibitor. The concentration of inhibitors giving 50% inhibition of enzyme activity (IC50) was calculated from the lease-squares regression line of the logarithmic concentration plotted against the remaining activity.

Row | Structure (SMILES) | IC50 (read-out: IC50 (converted)) | inhibition (%) (Concentration 0.1 (unit not given)) | inhibition (%) (Concentration 1 (unit not given)) | inhibition (%) (Concentration 10 (unit not given)) | IC50
1 | O=C(O)c1cc(O)ccc1O [2,5-dihydroxybenzoic acid, 2,5-dihydroxy benzoic acid] | 256 µM | – | – | – | –
2 | CCCCCCCC[C@@H](O)C(=O)N[C@@H](CO[C@@H]1OC(CO)[C@@H](O)C(O)C1O)[C@H](O)/C=C/CC/C=C(\C)CCCC (stereo partly shown) [Cerebroside] | 52.3 µM | – | – | – | –
3 | O=Cc1ccc(O)c(O)c1 [Protocatechualdehyde, protocatechualdehyde] | 5.21 µM | – | – | – | –
4 | O=C(O)CC1(CC(=O)O)CCCC1 [TMG, tetramethylene glutaric acid] | – | 29.8% | 53.7% | 82.1% | 0.63 µg/mL
